Reference: patent US20060233743A1, “Compositions and methods of therapy” (priority 2002, published 2006)

Legend:
[1] = system: cells of the immune system; assay: release of IL-10 from cells of the immune system in the presence of GMCSF; format: cell-based
[2] = system: PDE; conditions: cited from earlier work
[3] = system: U937 cells; assay: Example 5: IL-10 and TNFα mRNA in U937 cells; format: cell-based, human; conditions: differentiation, PMA 2×10^−7 M
Experimental: U937 (human monocyte cell line) cells were grown in RPMI (PAA Laboratories) medium with 10% fetal calf serum added (PAA Laboratories). Cells were treated with prostaglandin E2 at 10^−6 Molar, Rolipram 10^−6 Molar, Forskolin 50×10^−6 Molar with or without GMCSF at 5 ng/ml for 48 hours. Cells were pelleted and the mRNA was extracted with Tri reagent (Sigma, Poole, UK). Total RNA was obtained by addition of chloroform and subsequent isopropanol precipitation. RNA was reverse transcribed with reverse transcriptase (Applied Biosystems) and random hexamers (Applied Biosystems). Probes and primers for amplification and detection of IL-10 were designed using Primer Express (Applied Biosystems) and are as follows:
As for Example 4 but mRNA for TNFα alpha is also included.
Data is shown as the ratio of IL-10 mRNA/TNFα mRNA. P═PMA=Phorbol myristoyl acetate; F=Fsk=Forskolin, g=GMCSF, C=vehicle control.

[4] = system: type IV PDE; conditions: type IV PDE inhibitor; cited from earlier work

19-hydroxy PGE
stimulation of IL-10 [1]: increased strikingly

CC(C)Cn1c(=O)n(C)c(=O)c2[nH]cnc21 [IBMX, 3-isobutyl-1-methylxanthine]
IC50 ([2]; non-specific PDE inhibitor): 2 to 50 µM

CCCCC[C@H](O)/C=C/[C@H]1[C@H](O)CC(=O)[C@@H]1C/C=C\CCCC(=O)O [PGE, prostaglandin E2]
stimulation of IL-10 [1]: increased strikingly

CCCCCCCCCCCCCC(=O)O[C@@H]1[C@@H](C)[C@@]2(O)[C@@H](C=C(CO)C[C@]3(O)C(=O)C(C)=C[C@@H]23)[C@@H]2C(C)(C)[C@]12OC(C)=O [PMA, Phorbol myristoyl acetate]
IL-10 mRNA [3]: increased | TNFα mRNA ([3]; Forskolin 50×10^−6 Molar, GMCSF 5 ng/ml): also increased

CCCCOc1cc(CC2CNC(=O)N2)ccc1OC (centres unmarked) [Ro-20-1724, 4-[3-butoxy-4-methoxybenzyl]-2-imidazolidinone]
IC50 [4]: 2000 nM

COc1ccc(C2CNC(=O)C2)cc1OC1CCCC1 (centres unmarked) [rolipram, 4-[3-cyclopentyloxy-4-methoxyphenyl]-2-pyrrolidinone]
IC50 [4]: 800 nM

Cn1c(=O)c2[nH]cnc2n(C)c1=O [theophylline]
times less effective than rolipram ([2]; non-selective inhibitor compared with rolipram): 30 times
